Assay results: PMC9505031, “Implementation of QbD Approach to the Development of Chromatographic Methods for the Determination of Complete Impurity Profile of Substance on the Preclinical and Clinical Step of Drug Discovery Studies” (International Journal of Molecular Sciences, 2022)
Like-named read-outs stand apart in the source and are kept apart here.

Assays:
[1] = Chromatographic hydrophobicity index CHI logD determination (UltraCore SuperC18 column); assay type: physicochemical
From the text: Due to this observation and to better characterise elution conditions for method development, it was decided to determine the chromatographic hydrophobicity index CHI logD of CPL409116 and its impurities by the methodology described by Valko et al.. Chromatographic hydrophobicity index CHI logD has been originally used for high-throughput physicochemical property profiling for rational drug design, where determined values strongly correlate to lipophilicity (logP and/or logD) of molecules.
On a basis of determining lipophilicity described by CHI logD at pH 2.6, 7.4 and 10.5 on ACE Ultracore SuperC18 column more valuable data were obtained in a contest of chromatography interactions molecules with stationary phase extended with their acid-base properties (Table 1). Particularly, strong pH dependence on retention factors has been observed for JAK ImpC and also for JAK07, JAK08, and JAK09. Greater differences and a wider range of CHI logD values, calculated on a base of peaks retention times of compounds, in the lower pH range than in the pH 7.4–10.5 range have been observed. The use of mobile phases with a lower pH would allow obtaining higher chromatographic resolutions and higher selectivity of the analytical method.
For the CHI logD determination, separate solutions of all the tested sample were prepared at a concentration of 1 mM in DMSO. Reference mix solutions have a concentration of 1 mM in DMSO.
The CHI logD for JAK01 and its impurities was determined on an UltraCore 2.5 SuperC18 (2.1 × 50 mm, 2.5 µm, ACE) column with eluent A consisting of formic acid (10 mM, pH 2.6), and ammonium acetate (50 mM) buffers with different concentrations of additives were used to prepare buffer solutions of 7.4, and 10.5, and eluent B consisted ACN [58].

[2] = Solubility in aqueous solutions; assay type: physicochemical

- chromatographic logD ([1]; pH 2.6, 10 mM formic acid/ACN, read-out: CHILogD pH 2.6): 3.51
- chromatographic logD ([1]; pH 7.4, 50 mM ammonium acetate/ACN, read-out: CHILogD pH 7.4): 3.09
- chromatographic logD ([1]; pH 10.5, 50 mM ammonium acetate/ACN, read-out: CHILogD pH 10.5): 3.05
- Solubility in aqueous solutions ([2]; aqueous solutions): practically insoluble
- solubility ([2]; pH 7.4, aqueous buffer, phosphate buffer with a pH of 7.4): < 0.1 µg/mL
Compound: COc1cccc(-c2cc3ncc(C(N)=O)c(N[C@@H]4CCN(c5ccc(C#N)nn5)CC4(C)C)n3n2)n1 [CPL409116]
